From PubChem BioAssay (NCI)
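Each compound was tested at five concentrations against cells in 96-well plates for 48 hours. TGI: total growth inhibition.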

What was measured:
Test in all cases: inhibition of tumour cell growth, NCI panel, 48 h
UACC-257 melanoma = system: UACC-257 melanoma
A549 NSCLC = system: A549 NSCLC
SK-MEL-28 melanoma = system: SK-MEL-28 melanoma
LXFL 529 NSCLC = system: LXFL 529 NSCLC
EKVX NSCLC = system: EKVX NSCLC
MOLT-4 leukemia = system: MOLT-4 leukemia
CAKI-1 renal = system: CAKI-1 renal
HCT-116 colon = system: HCT-116 colon
SK-MEL-2 melanoma = system: SK-MEL-2 melanoma
DLD-1 colon = system: DLD-1 colon
SN12C renal = system: SN12C renal
NCI-H522 lung = system: NCI-H522 lung
SK-OV-3 ovarian = system: SK-OV-3 ovarian
SR leukemia = system: SR leukemia
DMS 273 small cell lung = system: DMS 273 small cell lung
OVCAR-4 ovarian = system: OVCAR-4 ovarian
SNB-75 CNS = system: SNB-75 CNS
SF-539 CNS = system: SF-539 CNS
XF 498 CNS = system: XF 498 CNS
SF-295 CNS = system: SF-295 CNS
HL-60(TB) leukemia = system: HL-60(TB) leukemia
SNB-19 CNS = system: SNB-19 CNS
HT29 colon = system: HT29 colon
HOP-92 NSCLC = system: HOP-92 NSCLC
M19-MEL melanoma = system: M19-MEL melanoma
SK-MEL-5 melanoma = system: SK-MEL-5 melanoma
SF-268 CNS = system: SF-268 CNS
SNB-78 CNS = system: SNB-78 CNS
RPMI-8226 leukemia = system: RPMI-8226 leukemia
CCRF-CEM leukemia = system: CCRF-CEM leukemia
OVCAR-3 ovarian = system: OVCAR-3 ovarian
TK-10 renal = system: TK-10 renal
SW-620 colon = system: SW-620 colon
DMS 114 small cell lung = system: DMS 114 small cell lung
M14 melanoma = system: M14 melanoma
NCI-H226 lung = system: NCI-H226 lung
HCC-2998 colon = system: HCC-2998 colon
A498 renal = system: A498 renal
RXF-631 renal = system: RXF-631 renal
HOP-62 NSCLC = system: HOP-62 NSCLC
NCI-H23 lung = system: NCI-H23 lung
K-562 leukemia = system: K-562 leukemia
KM12 colon = system: KM12 colon
MALME-3M melanoma = system: MALME-3M melanoma
UACC-62 melanoma = system: UACC-62 melanoma
OVCAR-8 ovarian = system: OVCAR-8 ovarian
COLO 205 colon = system: COLO 205 colon
UO-31 renal = system: UO-31 renal
786-0 renal = system: 786-0 renal
U251 CNS = system: U251 CNS
NCI-H460 lung = system: NCI-H460 lung
IGROV1 ovarian = system: IGROV1 ovarian
OVCAR-5 ovarian = system: OVCAR-5 ovarian
LOX IMVI melanoma = system: LOX IMVI melanoma
HOP-18 NSCLC = system: HOP-18 NSCLC
ACHN renal = system: ACHN renal
RXF 393 renal = system: RXF 393 renal
KM20L2 colon = system: KM20L2 colon

SMILES: CN(C)CCCCC1CCN(CC(=O)N2c3ccccc3NC(=O)c3ccccc32)CC1
- TGI (UACC-257 melanoma): > 100 µM
- TGI (A549 NSCLC): > 100 µM
- TGI (SK-MEL-28 melanoma): > 100 µM
- TGI (LXFL 529 NSCLC): > 100 µM
- TGI (EKVX NSCLC): > 100 µM
- TGI (MOLT-4 leukemia): > 100 µM
- TGI (CAKI-1 renal): > 100 µM
- TGI (HCT-116 colon): > 100 µM
- TGI (SK-MEL-2 melanoma): > 100 µM
- TGI (DLD-1 colon): > 100 µM
- TGI (SN12C renal): > 100 µM
- TGI (NCI-H522 lung): > 100 µM
- TGI (SK-OV-3 ovarian): > 100 µM
- TGI (SR leukemia): > 100 µM
- TGI (DMS 273 small cell lung): > 100 µM
- TGI (OVCAR-4 ovarian): > 100 µM
- TGI (SNB-75 CNS): > 100 µM
- TGI (SF-539 CNS): > 100 µM
- TGI (XF 498 CNS): > 100 µM
- TGI (SF-295 CNS): > 100 µM
- TGI (HL-60(TB) leukemia): > 100 µM
- TGI (SNB-19 CNS): > 100 µM
- TGI (HT29 colon): > 100 µM
- TGI (HOP-92 NSCLC): > 100 µM
- TGI (M19-MEL melanoma): > 100 µM
- TGI (SK-MEL-5 melanoma): > 100 µM
- TGI (SF-268 CNS): > 100 µM
- TGI (SNB-78 CNS): > 100 µM
- TGI (RPMI-8226 leukemia): > 100 µM
- TGI (CCRF-CEM leukemia): > 100 µM
- TGI (OVCAR-3 ovarian): > 100 µM
- TGI (TK-10 renal): > 100 µM
- TGI (SW-620 colon): > 100 µM
- TGI (DMS 114 small cell lung): > 100 µM
- TGI (M14 melanoma): 72.9 µM
- TGI (NCI-H226 lung): > 100 µM
- TGI (HCC-2998 colon): > 100 µM
- TGI (A498 renal): > 100 µM
- TGI (RXF-631 renal): > 100 µM
- TGI (HOP-62 NSCLC): > 100 µM
- TGI (NCI-H23 lung): > 100 µM
- TGI (K-562 leukemia): > 100 µM
- TGI (KM12 colon): > 100 µM
- TGI (MALME-3M melanoma): > 100 µM
- TGI (UACC-62 melanoma): > 100 µM
- TGI (OVCAR-8 ovarian): > 100 µM
- TGI (COLO 205 colon): > 100 µM
- TGI (UO-31 renal): > 100 µM
- TGI (786-0 renal): > 100 µM

SMILES: COC(=O)CCC1(NS(=O)(=O)c2ccc(C)cc2)CCC(C(C)(C)C)CC1 (configuration not stated)
- TGI (UACC-257 melanoma): 24.7 µM
- TGI (A549 NSCLC): 73.4 µM
- TGI (SK-MEL-28 melanoma): 25.3 µM
- TGI (LXFL 529 NSCLC): 68.3 µM
- TGI (MOLT-4 leukemia): 25.2 µM
- TGI (CAKI-1 renal): 27.3 µM
- TGI (HCT-116 colon): 22.2 µM
- TGI (SK-MEL-2 melanoma): 33.5 µM
- TGI (DLD-1 colon): 65.9 µM
- TGI (SN12C renal): 28.5 µM
- TGI (NCI-H522 lung): 21.3 µM
- TGI (SK-OV-3 ovarian): > 100 µM
- TGI (DMS 273 small cell lung): 31.2 µM
- TGI (OVCAR-4 ovarian): 32.1 µM
- TGI (SNB-75 CNS): 41.2 µM
- TGI (SF-539 CNS): 26.2 µM
- TGI (XF 498 CNS): 30.7 µM
- TGI (SF-295 CNS): 26.5 µM
- TGI (U251 CNS): 29 µM
- TGI (HL-60(TB) leukemia): 11.8 µM
- TGI (SNB-19 CNS): 35.6 µM
- TGI (HT29 colon): 31.8 µM
- TGI (HOP-92 NSCLC): 27.1 µM
- TGI (M19-MEL melanoma): 25.2 µM
- TGI (SK-MEL-5 melanoma): 19.3 µM
- TGI (SNB-78 CNS): 67.2 µM
- TGI (NCI-H460 lung): 92 µM
- TGI (RPMI-8226 leukemia): 21.4 µM
- TGI (CCRF-CEM leukemia): 37 µM
- TGI (OVCAR-3 ovarian): 23.2 µM
- TGI (TK-10 renal): 65.4 µM
- TGI (SW-620 colon): 37.3 µM
- TGI (DMS 114 small cell lung): 20.3 µM
- TGI (M14 melanoma): 33.7 µM
- TGI (IGROV1 ovarian): 41.7 µM
- TGI (OVCAR-5 ovarian): 32.8 µM
- TGI (HCC-2998 colon): 30.3 µM
- TGI (A498 renal): 28.8 µM
- TGI (RXF-631 renal): 45.2 µM
- TGI (HOP-62 NSCLC): 36.1 µM
- TGI (NCI-H23 lung): 29.2 µM
- TGI (K-562 leukemia): 33.7 µM
- TGI (LOX IMVI melanoma): 38 µM
- TGI (KM12 colon): 44.7 µM
- TGI (MALME-3M melanoma): 35.4 µM
- TGI (UACC-62 melanoma): 26.4 µM
- TGI (OVCAR-8 ovarian): 40.7 µM
- TGI (COLO 205 colon): 26.8 µM
- TGI (UO-31 renal): 16 µM
- TGI (786-0 renal): 29 µM

SMILES: Cc1cc(C)nc(NS(=O)(=O)c2ccc(NC(=O)c3ccc(Cl)c4c(Nc5ccc(S(=O)(=O)Nc6cc(C)on6)cc5)c5ccccc5nc34)cc2)n1
- TGI (UACC-257 melanoma): 32.2 µM
- TGI (A549 NSCLC): 40.7 µM
- TGI (SK-MEL-28 melanoma): 32.9 µM
- TGI (LXFL 529 NSCLC): 30.7 µM
- TGI (EKVX NSCLC): 33.9 µM
- TGI (MOLT-4 leukemia): 70.9 µM
- TGI (CAKI-1 renal): 29.5 µM
- TGI (HCT-116 colon): 39.9 µM
- TGI (DLD-1 colon): 31.6 µM
- TGI (SN12C renal): 36.5 µM
- TGI (NCI-H522 lung): 31.8 µM
- TGI (HOP-18 NSCLC): 29.2 µM
- TGI (SK-OV-3 ovarian): 35.9 µM
- TGI (ACHN renal): 36.1 µM
- TGI (RXF 393 renal): 28 µM
- TGI (DMS 273 small cell lung): 31.9 µM
- TGI (OVCAR-4 ovarian): 30.7 µM
- TGI (SF-539 CNS): 34.6 µM
- TGI (SF-295 CNS): 32.7 µM
- TGI (U251 CNS): 28.9 µM
- TGI (HL-60(TB) leukemia): 27.2 µM
- TGI (SNB-19 CNS): 30.8 µM
- TGI (HT29 colon): 35.8 µM
- TGI (HOP-92 NSCLC): 30.3 µM
- TGI (M19-MEL melanoma): 39.7 µM
- TGI (SK-MEL-5 melanoma): 30 µM
- TGI (SF-268 CNS): 28.9 µM
- TGI (SNB-78 CNS): 37.2 µM
- TGI (NCI-H460 lung): 36.3 µM
- TGI (RPMI-8226 leukemia): 50.3 µM
- TGI (OVCAR-3 ovarian): 30.4 µM
- TGI (TK-10 renal): 32.3 µM
- TGI (SW-620 colon): 33.1 µM
- TGI (DMS 114 small cell lung): 32.6 µM
- TGI (M14 melanoma): 36.3 µM
- TGI (NCI-H226 lung): 32.9 µM
- TGI (IGROV1 ovarian): 37.3 µM
- TGI (OVCAR-5 ovarian): 35.7 µM
- TGI (HCC-2998 colon): 33 µM
- TGI (A498 renal): 29.1 µM
- TGI (KM20L2 colon): 32.6 µM
- TGI (RXF-631 renal): 33.7 µM
- TGI (HOP-62 NSCLC): 30.6 µM
- TGI (NCI-H23 lung): 29.7 µM
- TGI (K-562 leukemia): 68.5 µM
- TGI (LOX IMVI melanoma): 30 µM
- TGI (KM12 colon): 33.7 µM
- TGI (MALME-3M melanoma): 40 µM
- TGI (UACC-62 melanoma): 32.3 µM
- TGI (OVCAR-8 ovarian): 30.9 µM
- TGI (COLO 205 colon): 32.3 µM
- TGI (UO-31 renal): 31.7 µM
- TGI (786-0 renal): 30.9 µM
